Tests used:
[1] = test system: H292 cells; assay: CellTiter-Glo viability and CalcuSyn synergy, PRMT5 inhibitor + palbociclib, 6 days; conditions: for Combination Fa: 8640 min
[2] = test system: MIAPACA2T2 cells; assay: CellTiter-Glo viability and CalcuSyn synergy, PRMT5 inhibitor + trametinib, 6 days; conditions: for Combination Fa: 8640 min
[3] = test system: LU99 cells; assay: CellTiter-Glo viability and CalcuSyn synergy, PRMT5 inhibitor + KIF18A, 6 days; assay type: cell-based; conditions: for Combination Fa: 8640 min
Experimental: (§1) Raw luminescent values were converted to fraction affected (Fa) with the following equation: […]
Synergy analysis was performed using the CalcuSyn software to determine CI scores based on the drug concentrations used and corresponding Fa values. Results are shown in Tables 13-15 below. *CI Values (Calcusyn): Strong Synergism: 0.1-0.3; Synergism: 0.3-0.7; Moderate Synergism: 0.7-0.85; Slight Synergism: 0.85-0.9; Nearly Additive: 0.9-1.1.

[4] = test system: LU99 NSCLC xenografts; assay: Tumor growth inhibition, LU99 NSCLC xenografts (Example 12); assay type: in vivo, Female NOD/SCID mice; conditions: Compound B 100 mg/kg orally once daily + sotorasib 100 mg/kg; versus either single agent alone
Excerpt: 10 Female NOD/SCID mice were implanted with LU99 NSCLC tumor xenografts. Mean tumor volumes for each grouping were between 100-200 mm^3. […] Plotted data represents the TGI (tumor growth inhibition), n=10 for each group.

[5] = test system: MIAPACA2 cells; assay: CellTiter-Glo cell viability, PRMT5 inhibitor + sotorasib, 6 days; assay type: cell-based; conditions: Compound B + sotorasib
Experimental: Cell viability was measured by the CellTiter-Glo Luminescence assay after 6 days. […] To assess cell growth after combination treatment, nuclear counts were performed on the IncuCyte live cell imager over 8 days.

[6] = test system: MIAPACA2 cells; assay: CellTiter-Glo viability and CalcuSyn synergy, PRMT5 inhibitor + sotorasib, 6 days (Example 15); assay type: cell-based; parameters: key: CI<1 synergy, CI=1 additivity, CI>1 antagonism
Experimental: as §1
Synergy analysis was performed using the CalcuSyn software to determine CI scores based on the drug concentrations used and corresponding Fa values. Results are shown in Table 24 below. *CI Values (Calcusyn): CI<1 indicates synergy. C=1 indicates additivity. C>1 indicates antagonism.

[7] = test system: MIAPACA2T2 cells; assay: CellTiter-Glo viability and CalcuSyn synergy, PRMT5 inhibitor + KIF18A, 6 days; conditions: for Combination Fa: 8640 min
[8] = Compound B 0.0425 μM + palbociclib 0.044102 μM
[9] = Compound B 0.0425 μM + palbociclib 0.079383 μM
[10] = Compound B 0.0425 μM + palbociclib 0.14289 μM
[11] = Compound B 0.0425 μM + palbociclib 0.257202 μM
[12] = Compound B 0.0425 μM + palbociclib 0.462963 μM
[13] = Compound B 0.0425 μM + palbociclib 0.833333 μM
[14] = Compound B 0.0425 μM + palbociclib 1.5 μM
[15] = Compound B 0.437381 μM + trametinib 0.00101 μM
[16] = Compound B 0.437381 μM + trametinib 0.001918 μM
[17] = Compound B 0.437381 μM + trametinib 0.003645 μM
[18] = Compound B 0.437381 μM + trametinib 0.00531 μM
[19] = Compound B 0.437381 μM + trametinib 0.006925 μM
[20] = Compound B 0.437381 μM + trametinib 0.013158 μM
[21] = Compound B 0.437381 μM + trametinib 0.025 μM
[22] = Compound B 0.0729 μM + KIF18A 0.003984 μM
[23] = Compound B 0.0729 μM + KIF18A 0.005578 μM
[24] = Compound B 0.0729 μM + KIF18A 0.007809 μM
[25] = Compound B 0.0729 μM + KIF18A 0.010933 μM
[26] = Compound B 0.0729 μM + KIF18A 0.015306 μM
[27] = Compound B 0.0729 μM + KIF18A 0.021429 μM
[28] = Compound B 0.0729 μM + KIF18A 0.03 μM
[29] = Compound B 0.2302 μM + KIF18A 0.021256 μM
[30] = Compound B 0.2302 μM + KIF18A 0.040386 μM
[31] = Compound B 0.2302 μM + KIF18A 0.076734 μM
[32] = Compound B 0.2302 μM + KIF18A 0.145794 μM
[33] = Compound B 0.2302 μM + KIF18A 0.277008 μM
[34] = Compound B 0.2302 μM + KIF18A 0.526316 μM
[35] = Compound B 0.2302 μM + KIF18A 1 μM

SMILES: Cc1cc2cc(C(=O)N(Cc3ccc(C(F)(F)F)cn3)[C@@H](C)c3ncccn3)ccc2nc1N [Compound B]
- Computed CI value [1, 8]: 0.421
- Combination Fa [1, 8]: 0.6807
- Computed CI value [1, 9]: 0.403
- Combination Fa [1, 9]: 0.7009
- Computed CI value [1, 10]: 0.284
- Combination Fa [1, 10]: 0.7704
- Computed CI value [1, 11]: 0.308
- Combination Fa [1, 11]: 0.7959
- Computed CI value [1, 12]: 0.395
- Combination Fa [1, 12]: 0.8126
- Computed CI value [1, 13]: 0.587
- Combination Fa [1, 13]: 0.8205
- Computed CI value [1, 14]: 0.878
- Combination Fa [1, 14]: 0.8344
- Computed CI value [2, 15]: 0.675
- Combination Fa [2, 15]: 0.6193
- Computed CI value [2, 16]: 0.555
- Combination Fa [2, 16]: 0.6852
- Computed CI value [2, 17]: 0.674
- Combination Fa [2, 17]: 0.7091
- Computed CI value [2, 18]: 0.775
- Combination Fa [2, 18]: 0.5757
- Computed CI value [2, 19]: 0.557
- Combination Fa [2, 19]: 0.797
- Computed CI value [2, 20]: 0.651
- Combination Fa [2, 20]: 0.8405
- Computed CI value [2, 21]: 1.099
- Combination Fa [2, 21]: 0.8474
- Computed CI value [3, 22]: 0.937
- Combination Fa [3, 22]: 0.596
- Computed CI value [3, 23]: 0.625
- Combination Fa [3, 23]: 0.7067
- Computed CI value [3, 24]: 0.753
- Combination Fa [3, 24]: 0.712
- Computed CI value [3, 25]: 0.651
- Combination Fa [3, 25]: 0.7754
- Computed CI value [3, 26]: 0.797
- Combination Fa [3, 26]: 0.785
- Computed CI value [3, 27]: 0.996
- Combination Fa [3, 27]: 0.7939
- Computed CI value [3, 28]: 1.312
- Combination Fa [3, 28]: 0.797
- anti-tumor activity [4]: significant anti-tumor activity versus either single agent alone
- cell viability [5]: reduced MIAPACA2 cell viability
- CI score ([6]; Compound B 0.018 μM + sotorasib 0.006 μM): 0.68
- CI score ([6]; Compound B 0.018 μM + sotorasib 0.010 μM): 0.73
- CI score ([6]; Compound B 0.018 μM + sotorasib 0.015 μM): 0.64
- CI score ([6]; Compound B 0.018 μM + sotorasib 0.024 μM): 0.80
- CI score ([6]; Compound B 0.018 μM + sotorasib 0.039 μM): 0.77
- CI score ([6]; Compound B 0.018 μM + sotorasib 0.063 μM): 0.93
- CI score ([6]; Compound B 0.018 μM + sotorasib 0.100 μM): 1.25
- CI score ([6]; Compound B 0.034 μM + sotorasib 0.006 μM): 0.55
- CI score ([6]; Compound B 0.034 μM + sotorasib 0.010 μM): 0.59
- CI score ([6]; Compound B 0.034 μM + sotorasib 0.015 μM): 0.56
- CI score ([6]; Compound B 0.034 μM + sotorasib 0.024 μM): 0.76
- CI score ([6]; Compound B 0.034 μM + sotorasib 0.039 μM): 0.79
- CI score ([6]; Compound B 0.034 μM + sotorasib 0.063 μM): 0.83
- CI score ([6]; Compound B 0.034 μM + sotorasib 0.100 μM): 1.43
- CI score ([6]; Compound B 0.064 μM + sotorasib 0.006 μM): 0.52
- CI score ([6]; Compound B 0.064 μM + sotorasib 0.010 μM): 0.65
- CI score ([6]; Compound B 0.064 μM + sotorasib 0.015 μM): 0.68
- CI score ([6]; Compound B 0.064 μM + sotorasib 0.024 μM): 0.53
- CI score ([6]; Compound B 0.064 μM + sotorasib 0.039 μM): 0.72
- CI score ([6]; Compound B 0.064 μM + sotorasib 0.063 μM): 0.75
- CI score ([6]; Compound B 0.064 μM + sotorasib 0.100 μM): 1.24
- CI score ([6]; Compound B 0.121 μM + sotorasib 0.006 μM): 0.63
- CI score ([6]; Compound B 0.121 μM + sotorasib 0.010 μM): 0.71
- CI score ([6]; Compound B 0.121 μM + sotorasib 0.015 μM): 0.53
- CI score ([6]; Compound B 0.121 μM + sotorasib 0.024 μM): 0.64
- CI score ([6]; Compound B 0.121 μM + sotorasib 0.039 μM): 0.67
- CI score ([6]; Compound B 0.121 μM + sotorasib 0.063 μM): 0.96
- CI score ([6]; Compound B 0.121 μM + sotorasib 0.100 μM): 1.02
- CI score ([6]; Compound B 0.230 μM + sotorasib 0.006 μM): 0.65
- CI score ([6]; Compound B 0.230 μM + sotorasib 0.010 μM): 0.63
- CI score ([6]; Compound B 0.230 μM + sotorasib 0.015 μM): 0.55
- CI score ([6]; Compound B 0.230 μM + sotorasib 0.024 μM): 0.51
- CI score ([6]; Compound B 0.230 μM + sotorasib 0.039 μM): 0.71
- CI score ([6]; Compound B 0.230 μM + sotorasib 0.063 μM): 0.72
- CI score ([6]; Compound B 0.230 μM + sotorasib 0.100 μM): 1.00
- CI score ([6]; Compound B 0.437 μM + sotorasib 0.006 μM): 0.55
- CI score ([6]; Compound B 0.437 μM + sotorasib 0.010 μM): 0.70
- CI score ([6]; Compound B 0.437 μM + sotorasib 0.015 μM): 0.52
- CI score ([6]; Compound B 0.437 μM + sotorasib 0.024 μM): 0.61
- CI score ([6]; Compound B 0.437 μM + sotorasib 0.039 μM): 0.65
- CI score ([6]; Compound B 0.437 μM + sotorasib 0.063 μM): 0.67
- CI score ([6]; Compound B 0.437 μM + sotorasib 0.100 μM): 1.06
- CI score ([6]; Compound B 0.831 μM + sotorasib 0.006 μM): 0.83
- CI score ([6]; Compound B 0.831 μM + sotorasib 0.010 μM): 0.85
- CI score ([6]; Compound B 0.831 μM + sotorasib 0.015 μM): 0.68
- CI score ([6]; Compound B 0.831 μM + sotorasib 0.024 μM): 0.65
- CI score ([6]; Compound B 0.831 μM + sotorasib 0.039 μM): 0.75
- CI score ([6]; Compound B 0.831 μM + sotorasib 0.063 μM): 0.89
- CI score ([6]; Compound B 0.831 μM + sotorasib 0.100 μM): 1.15
- CI score ([6]; Compound B 1.579 μM + sotorasib 0.006 μM): 1.30
- CI score ([6]; Compound B 1.579 μM + sotorasib 0.010 μM): 1.37
- CI score ([6]; Compound B 1.579 μM + sotorasib 0.015 μM): 0.95
- CI score ([6]; Compound B 1.579 μM + sotorasib 0.024 μM): 0.91
- CI score ([6]; Compound B 1.579 μM + sotorasib 0.039 μM): 0.95
- CI score ([6]; Compound B 1.579 μM + sotorasib 0.063 μM): 0.98
- CI score ([6]; Compound B 1.579 μM + sotorasib 0.100 μM): 1.25
- Computed CI value [7, 29]: 0.763
- Combination Fa [7, 29]: 0.5368
- Computed CI value [7, 30]: 0.591
- Combination Fa [7, 30]: 0.6323
- Computed CI value [7, 31]: 0.578
- Combination Fa [7, 31]: 0.7018
- Computed CI value [7, 32]: 0.881
- Combination Fa [7, 32]: 0.7173
- Computed CI value [7, 33]: 0.826
- Combination Fa [7, 33]: 0.7944
- Computed CI value [7, 34]: 1.158
- Combination Fa [7, 34]: 0.8219
- Computed CI value [7, 35]: 2.512
- Combination Fa [7, 35]: 0.8073
